The record followed here is ChEMBL document CHEMBL2331362, “Identification of N-acyl 4-(5-pyrimidine-2,4-dionyl)phenylalanine derivatives and their orally active prodrug esters as dual-acting alpha4-beta1 and alpha4-beta7 receptor antagonists” (Bioorg Med Chem Lett, 2013).

Molecules are shown by their SMILES. Activity calls are given as the source filed them. The rule behind the calls is not given here.

Series [1] deals with Rattus norvegicus. Kind of series: Cmax in rat assessed as (S)-2-(2,6-difluorobenzamido)-3-(4-(1,3,6-trimethyl-2,4-dioxo-1,2,3,4-tetrahydropyrimidin-5-yl)phenyl)propanoic acid level at 50 mg/kg, po. It counts as ADME, organism-based. The arrangement: dose 50 mg/kg, route oral. To be noted: in vivo.
Series [2] concerns Canis familiaris. Kind of series: AUC (0 to 24 hrs) in dog assessed as (S)-2-(2,6-difluorobenzamido)-3-(4-(1,3,6-trimethyl-2,4-dioxo-1,2,3,4-tetrahydropyrimidin-5-yl)phenyl)propanoic acid level at 50 mg/kg, po. It counts as ADME, organism-based, Canis lupus familiaris, Plasma. The arrangement: time < 24 hr, dose 50 mg/kg, route oral. To be noted: in vivo.
A short description of series [3]: Oral bioavailability in rat. It is filed as ADME, organism-based. To be noted: in vivo.
For series [4], the system named is Cynomolgus monkey. As to the kind of experiment: Tmax in cynomolgus monkey assessed as (S)-2-(2,6-difluorobenzamido)-3-(4-(1,3,6-trimethyl-2,4-dioxo-1,2,3,4-tetrahydropyrimidin-5-yl)phenyl)propanoic acid level at 30 mg/kg, po. It is filed as ADME, organism-based, Macaca fascicularis. The arrangement: dose 30 mg/kg, route oral. To be noted: in vivo.
Series [5] deals with Canis familiaris. As to the kind of experiment: Cmax in dog assessed as (S)-2-(2,6-difluorobenzamido)-3-(4-(1,3,6-trimethyl-2,4-dioxo-1,2,3,4-tetrahydropyrimidin-5-yl)phenyl)propanoic acid level at 50 mg/kg, po. The arrangement: dose 50 mg/kg, route oral. To be noted: in vivo. It counts as ADME, organism-based, Canis lupus familiaris.
In series [6] the test system is Rattus norvegicus. As to the kind of experiment: Oral bioavailability in rat assessed as (S)-2-(2,6-difluorobenzamido)-3-(4-(1,3,6-trimethyl-2,4-dioxo-1,2,3,4-tetrahydropyrimidin-5-yl)phenyl)propanoic acid level at 50 mg/kg. It is filed as ADME, organism-based. To be noted: in vivo.
Series [7] can be described thus: Distribution coefficient, log D of the compound. It counts as physicochemical. The settings on record: octanol/water.
Series [8] deals with Cynomolgus monkey. Kind of series: Antiinflammatory activity in atopic cynomolgus monkey challenged with aerosolized Ascaris suum extract assessed as reduction in neutrophils influx into lungs at 1 and 30 mg/kg, po administered 4 hrs before antigen challenge measured 48 hrs after antigen challenge. It counts as functional, organism-based. Also noted: dose 30 mg/kg. The settings on record: Macaca fascicularis.

In series [9] the test system is Rattus norvegicus. Kind of series: Tmax in rat assessed as (S)-2-(2,6-difluorobenzamido)-3-(4-(1,3,6-trimethyl-2,4-dioxo-1,2,3,4-tetrahydropyrimidin-5-yl)phenyl)propanoic acid level at 50 mg/kg, po. It counts as ADME, organism-based. The arrangement: dose 50 mg/kg, route oral. To be noted: in vivo.
Series [10] concerns Mus musculus. Kind of series: Cmax in mouse assessed as (S)-2-(2,6-difluorobenzamido)-3-(4-(1,3,6-trimethyl-2,4-dioxo-1,2,3,4-tetrahydropyrimidin-5-yl)phenyl)propanoic acid level at 50 mg/kg, po. The settings on record: in vivo. It is filed as ADME, organism-based. The arrangement: dose 50 mg/kg, route oral.
Series [11] in a line: Apparent permeability across human Caco2 cells. It counts as ADME, cell-based. The settings on record: Caco-2. (Caco-2 cells form a polarised layer with tight junctions and transporters.)
Series [12] deals with Cynomolgus monkey. As to the kind of experiment: AUC (0 to 24 hrs) in cynomolgus monkey assessed as (S)-2-(2,6-difluorobenzamido)-3-(4-(1,3,6-trimethyl-2,4-dioxo-1,2,3,4-tetrahydropyrimidin-5-yl)phenyl)propanoic acid level at 30 mg/kg, po. To be noted: in vivo. Also noted: time < 24 hr, dose 30 mg/kg, route oral. It is filed as ADME, organism-based, Macaca fascicularis, Plasma.

Series [13] deals with Rattus norvegicus. Kind of series: AUC (0 to 24 hrs) in rat assessed as (S)-2-(2,6-difluorobenzamido)-3-(4-(1,3,6-trimethyl-2,4-dioxo-1,2,3,4-tetrahydropyrimidin-5-yl)phenyl)propanoic acid level at 50 mg/kg, po. It counts as ADME, organism-based, Plasma. The arrangement: time < 24 hr, dose 50 mg/kg, route oral. To be noted: in vivo.
The test system of series [14] is Mus musculus. As to the kind of experiment: Oral bioavailability in mouse assessed as (S)-2-(2,6-difluorobenzamido)-3-(4-(1,3,6-trimethyl-2,4-dioxo-1,2,3,4-tetrahydropyrimidin-5-yl)phenyl)propanoic acid level at 50 mg/kg. The settings on record: in vivo. It counts as ADME, organism-based.
Series [15] deals with Canis familiaris. As to the kind of experiment: Tmax in dog assessed as (S)-2-(2,6-difluorobenzamido)-3-(4-(1,3,6-trimethyl-2,4-dioxo-1,2,3,4-tetrahydropyrimidin-5-yl)phenyl)propanoic acid level at 50 mg/kg, po. It counts as ADME, organism-based, Canis lupus familiaris. To be noted: in vivo. Also noted: dose 50 mg/kg, route oral.
Series [16] concerns Cynomolgus monkey. Kind of series: Oral bioavailability in cynomolgus monkey assessed as (S)-2-(2,6-difluorobenzamido)-3-(4-(1,3,6-trimethyl-2,4-dioxo-1,2,3,4-tetrahydropyrimidin-5-yl)phenyl)propanoic acid level at 30 mg/kg. It is filed as ADME, organism-based, Macaca fascicularis. To be noted: in vivo.
In series [17] the test system is Canis familiaris. As to the kind of experiment: Oral bioavailability in dog assessed as (S)-2-(2,6-difluorobenzamido)-3-(4-(1,3,6-trimethyl-2,4-dioxo-1,2,3,4-tetrahydropyrimidin-5-yl)phenyl)propanoic acid level at 50 mg/kg. It is filed as ADME, organism-based, Canis lupus familiaris. To be noted: in vivo.
Series [18] deals with Cynomolgus monkey. Kind of series: Antiinflammatory activity in atopic cynomolgus monkey challenged with aerosolized Ascaris suum extract assessed as reduction in lymphocytes influx into lungs at 1 and 30 mg/kg, po administered 4 hrs before antigen challenge measured 48 hrs after antigen challenge. To be noted: Macaca fascicularis. The arrangement: dose 30 mg/kg. It counts as functional, organism-based.

For series [19], the system named is Mus musculus. Kind of series: Tmax in mouse assessed as (S)-2-(2,6-difluorobenzamido)-3-(4-(1,3,6-trimethyl-2,4-dioxo-1,2,3,4-tetrahydropyrimidin-5-yl)phenyl)propanoic acid level at 50 mg/kg, po. It is filed as ADME, organism-based. Also noted: dose 50 mg/kg, route oral. The settings on record: in vivo.
The subject of series [20] is Cynomolgus monkey. As to the kind of experiment: Cmax in cynomolgus monkey assessed as (S)-2-(2,6-difluorobenzamido)-3-(4-(1,3,6-trimethyl-2,4-dioxo-1,2,3,4-tetrahydropyrimidin-5-yl)phenyl)propanoic acid level at 30 mg/kg, po. It is filed as ADME, organism-based, Macaca fascicularis. Also noted: dose 30 mg/kg, route oral. The settings on record: in vivo.
Series [21] deals with Cynomolgus monkey. Kind of series: Antiinflammatory activity in atopic cynomolgus monkey challenged with aerosolized Ascaris suum extract assessed as reduction in eosinophils influx into lungs at 1 and 30 mg/kg, po administered 4 hrs before antigen challenge measured 48 hrs after antigen challenge. It counts as functional, organism-based. Also noted: dose 30 mg/kg. To be noted: Macaca fascicularis.

Series [22] deals with Mus musculus. As to the kind of experiment: AUC (0 to 24 hrs) in mouse assessed as (S)-2-(2,6-difluorobenzamido)-3-(4-(1,3,6-trimethyl-2,4-dioxo-1,2,3,4-tetrahydropyrimidin-5-yl)phenyl)propanoic acid level at 50 mg/kg, po. It counts as ADME, organism-based, Plasma. Also noted: time < 24 hr, dose 50 mg/kg, route oral. To be noted: in vivo.

Take `CCOC(=O)[C@H](Cc1ccc(-c2c(C)n(C)c(=O)n(C)c2=O)cc1)NC(=O)c1c(F)cccc1F`: the Cmax – broadly, the maximum level reached in the sampled fluid or tissue – in the series with Rattus norvegicus [1] was determined as 5.287 µg/mL; with Canis familiaris [5] it was 0.471 µg/mL; with Mus musculus [10], 2.988 µg/mL; with Cynomolgus monkey [20], 0.337 µg/mL. The AUC – broadly, concentration integrated over time – was 1.69 µg·h/mL in the series with Canis familiaris [2], 3.146 µg·h/mL in the series on Cynomolgus monkey [12], 18.097 µg·h/mL in the series with Rattus norvegicus [13] and 8.547 µg·h/mL in the series with Mus musculus [22]. For the same compound, in [3], the bioavailability (as a rule, dose-corrected exposure relative to a reference, in per cent) stood at 9%. Further, the Tmax (as a rule, the time from dosing to the highest level) in the series on Cynomolgus monkey [4] came to 2 h; in the series on Rattus norvegicus [9], 1.3 h; with Canis familiaris [15] it was 1 h; with Mus musculus [19], 0.25 h. Further, the F in the series on Rattus norvegicus [6] was 9%; in the series with Mus musculus [14], 22%; with Cynomolgus monkey [16], 7%; in the series on Canis familiaris [17], 6%. Moreover, the pH-dependent lipophilicity (logD) – broadly, lipophilicity at a set pH, counting ionised and neutral species – in series [7] was 1.73. In addition, the result with Cynomolgus monkey [8], in the series on Cynomolgus monkey [18] and in the series with Cynomolgus monkey [21] was Active. Moreover, the Papp – broadly, a coefficient for how fast a substance crosses the barrier – in series [11] turned out to be 269 nm/s.
